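Briefly, cells in 96-well plates were exposed to five compound concentrations for 48 h, and endpoints were estimated by linear interpolation. GI50 = concentration required for 50% inhibition of growth. TGI denotes the concentration required for complete inhibition of growth.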
Assays:
Test in all cases: DTP human tumour cell line panel, 48 h
RPMI-8226 leukemia = system: RPMI-8226 leukemia
NCI/ADR-RES ovarian = system: NCI/ADR-RES ovarian
RXF 393 renal = system: RXF 393 renal
OVCAR-4 ovarian = system: OVCAR-4 ovarian
ACHN renal = system: ACHN renal
CCRF-CEM leukemia = system: CCRF-CEM leukemia
HT29 colon = system: HT29 colon
HL-60(TB) leukemia = system: HL-60(TB) leukemia
SW-620 colon = system: SW-620 colon
KM12 colon = system: KM12 colon
DU-145 prostate = system: DU-145 prostate
NCI-H23 lung = system: NCI-H23 lung
OVCAR-8 ovarian = system: OVCAR-8 ovarian
HCT-116 colon = system: HCT-116 colon
SK-MEL-28 melanoma = system: SK-MEL-28 melanoma
HCT-15 colon = system: HCT-15 colon
NCI-H522 lung = system: NCI-H522 lung
MDA-MB-435 = system: MDA-MB-435
MCF7 breast = system: MCF7 breast
OVCAR-5 ovarian = system: OVCAR-5 ovarian
SR leukemia = system: SR leukemia
T-47D breast = system: T-47D breast
MOLT-4 leukemia = system: MOLT-4 leukemia
786-0 renal = system: 786-0 renal
A549 NSCLC = system: A549 NSCLC
MDA-MB-231 breast = system: MDA-MB-231 breast
MALME-3M melanoma = system: MALME-3M melanoma
U251 CNS = system: U251 CNS
M14 melanoma = system: M14 melanoma
HCC-2998 colon = system: HCC-2998 colon
SK-OV-3 ovarian = system: SK-OV-3 ovarian
A498 renal = system: A498 renal
NCI-H226 lung = system: NCI-H226 lung
K-562 leukemia = system: K-562 leukemia
SF-539 CNS = system: SF-539 CNS
SNB-19 CNS = system: SNB-19 CNS
CAKI-1 renal = system: CAKI-1 renal
PC-3 prostate = system: PC-3 prostate
NCI-H460 lung = system: NCI-H460 lung
UACC-257 melanoma = system: UACC-257 melanoma
IGROV1 ovarian = system: IGROV1 ovarian
UO-31 renal = system: UO-31 renal
HS 578T breast = system: HS 578T breast
UACC-62 melanoma = system: UACC-62 melanoma
HOP-92 NSCLC = system: HOP-92 NSCLC
SK-MEL-5 melanoma = system: SK-MEL-5 melanoma
SF-295 CNS = system: SF-295 CNS
SK-MEL-2 melanoma = system: SK-MEL-2 melanoma
EKVX NSCLC = system: EKVX NSCLC
COLO 205 colon = system: COLO 205 colon
LOX IMVI melanoma = system: LOX IMVI melanoma
SNB-75 CNS = system: SNB-75 CNS
SF-268 CNS = system: SF-268 CNS
TK-10 renal = system: TK-10 renal
SN12C renal = system: SN12C renal
BT-549 breast = system: BT-549 breast
OVCAR-3 ovarian = system: OVCAR-3 ovarian
HOP-62 NSCLC = system: HOP-62 NSCLC

With Cc1cc(Oc2ccc3nc(COc4ccc(CC5SC(=O)NC5=O)cc4)n(C)c3c2)cc(C)c1N (stereo unspecified) the GI50 (RPMI-8226 leukemia) was 9.73 µM, the TGI (RPMI-8226 leukemia) was 45.4 µM and the GI50 (NCI/ADR-RES ovarian) was 32.5 µM. It also gave a TGI (NCI/ADR-RES ovarian) of over 100 µM, a GI50 (RXF 393 renal) of 50.8 µM and a TGI (RXF 393 renal) of over 100 µM. It also gave a GI50 (OVCAR-4 ovarian) of 34.2 µM, a TGI (OVCAR-4 ovarian) of over 100 µM and a GI50 (ACHN renal) of 48.9 µM. It also gave a TGI (ACHN renal) of over 100 µM, a GI50 (CCRF-CEM leukemia) of 30.9 µM and a TGI (CCRF-CEM leukemia) of over 100 µM. For the same compound, the GI50 (HT29 colon) was 45.2 µM, the TGI (HT29 colon) was over 100 µM and the GI50 (HL-60(TB) leukemia) was 26.8 µM. For the same compound, the TGI (HL-60(TB) leukemia) was 88 µM, the GI50 (SW-620 colon) was 30.6 µM and the TGI (SW-620 colon) was over 100 µM. The GI50 (KM12 colon) was 26.5 µM, the TGI (KM12 colon) was over 76.2 µM and the GI50 (DU-145 prostate) was 45.8 µM. It also gave a TGI (DU-145 prostate) of over 100 µM, a GI50 (NCI-H23 lung) of 24.2 µM and a TGI (NCI-H23 lung) of over 72.2 µM. The GI50 (OVCAR-8 ovarian) was 31.2 µM, the TGI (OVCAR-8 ovarian) was over 86.5 µM and the GI50 (HCT-116 colon) was 26.7 µM. It also gave a TGI (HCT-116 colon) of over 85.3 µM, a GI50 (SK-MEL-28 melanoma) of 49.7 µM and a TGI (SK-MEL-28 melanoma) of over 100 µM. It also gave a GI50 (HCT-15 colon) of 29.1 µM, a TGI (HCT-15 colon) of over 87.8 µM and a GI50 (NCI-H522 lung) of 33.2 µM. It also gave a TGI (NCI-H522 lung) of over 73.9 µM, a GI50 (MDA-MB-435) of 27.4 µM and a TGI (MDA-MB-435) of over 100 µM. For the same compound, the GI50 (MCF7 breast) was 27.6 µM, the TGI (MCF7 breast) was 98.9 µM and the GI50 (OVCAR-5 ovarian) was over 63.7 µM. The TGI (OVCAR-5 ovarian) was over 100 µM, the GI50 (SR leukemia) was 31.7 µM and the TGI (SR leukemia) was over 100 µM. For the same compound, the GI50 (T-47D breast) was 25.7 µM, the TGI (T-47D breast) was over 66.9 µM and the GI50 (MOLT-4 leukemia) was 26.4 µM. The TGI (MOLT-4 leukemia) was 69.5 µM, the GI50 (786-0 renal) was 49.9 µM and the TGI (786-0 renal) was over 100 µM. The GI50 (A549 NSCLC) was 29.5 µM, the TGI (A549 NSCLC) was over 87.7 µM and the GI50 (MDA-MB-231 breast) was 45.4 µM. For the same compound, the TGI (MDA-MB-231 breast) was over 100 µM, the GI50 (MALME-3M melanoma) was over 53.3 µM and the TGI (MALME-3M melanoma) was over 100 µM. For the same compound, the GI50 (U251 CNS) was 32.2 µM, the TGI (U251 CNS) was over 94 µM and the GI50 (M14 melanoma) was 29.6 µM. It also gave a TGI (M14 melanoma) of over 78.3 µM, a GI50 (HCC-2998 colon) of 54.9 µM and a TGI (HCC-2998 colon) of over 100 µM. For the same compound, the GI50 (SK-OV-3 ovarian) was over 66.1 µM, the TGI (SK-OV-3 ovarian) was over 100 µM and the GI50 (A498 renal) was over 43.4 µM. For the same compound, the TGI (A498 renal) was over 100 µM, the GI50 (NCI-H226 lung) was 46.8 µM and the TGI (NCI-H226 lung) was over 95.7 µM. It also gave a GI50 (K-562 leukemia) of 35.4 µM, a TGI (K-562 leukemia) of over 100 µM and a GI50 (SF-539 CNS) of 43.3 µM. It also gave a TGI (SF-539 CNS) of over 83.4 µM, a GI50 (SNB-19 CNS) of 42.2 µM and a TGI (SNB-19 CNS) of over 100 µM. For the same compound, the GI50 (CAKI-1 renal) was 30.9 µM, the TGI (CAKI-1 renal) was over 100 µM and the GI50 (PC-3 prostate) was 31.8 µM. It also gave a TGI (PC-3 prostate) of over 90.1 µM, a GI50 (NCI-H460 lung) of 26.6 µM and a TGI (NCI-H460 lung) of over 90.7 µM. The GI50 (UACC-257 melanoma) was 30.8 µM, the TGI (UACC-257 melanoma) was over 75.5 µM and the GI50 (IGROV1 ovarian) was over 64.3 µM. For the same compound, the TGI (IGROV1 ovarian) was over 100 µM, the GI50 (UO-31 renal) was 24.8 µM and the TGI (UO-31 renal) was over 81.6 µM. For the same compound, the GI50 (HS 578T breast) was over 57.3 µM, the TGI (HS 578T breast) was over 100 µM and the GI50 (UACC-62 melanoma) was 22.5 µM. For the same compound, the TGI (UACC-62 melanoma) was 72.4 µM, the GI50 (HOP-92 NSCLC) was over 34.4 µM and the TGI (HOP-92 NSCLC) was over 87.5 µM. The GI50 (SK-MEL-5 melanoma) was 15.6 µM, the TGI (SK-MEL-5 melanoma) was 32.5 µM and the GI50 (SF-295 CNS) was 32.5 µM. For the same compound, the TGI (SF-295 CNS) was over 100 µM, the GI50 (SK-MEL-2 melanoma) was over 49.4 µM and the TGI (SK-MEL-2 melanoma) was over 69.7 µM. The GI50 (EKVX NSCLC) was 39 µM, the TGI (EKVX NSCLC) was over 100 µM and the GI50 (COLO 205 colon) was 32.1 µM. It also gave a TGI (COLO 205 colon) of over 100 µM, a GI50 (LOX IMVI melanoma) of 17.2 µM and a TGI (LOX IMVI melanoma) of over 71.3 µM. For the same compound, the GI50 (SNB-75 CNS) was 27.6 µM, the TGI (SNB-75 CNS) was over 72.7 µM and the GI50 (SF-268 CNS) was 46.7 µM. The TGI (SF-268 CNS) was over 100 µM, the GI50 (TK-10 renal) was over 52.6 µM and the TGI (TK-10 renal) was over 91.6 µM. For the same compound, the GI50 (SN12C renal) was 44.1 µM, the TGI (SN12C renal) was over 100 µM and the GI50 (BT-549 breast) was 24.2 µM. For the same compound, the TGI (BT-549 breast) was over 79.2 µM, the GI50 (OVCAR-3 ovarian) was 28 µM and the TGI (OVCAR-3 ovarian) was over 70.9 µM. The GI50 (HOP-62 NSCLC) was 48.7 µM and the TGI (HOP-62 NSCLC) was over 100 µM.

— PubChem BioAssay (NCI)
